# US11446287B2, “Compounds and methods for EP300 or CBP modulation and indications therefor” (Opna Immuno-Oncology SA, priority 2019, dated 2022)
# Molecular target: T1, Recombinant human EP300 containing the bromodomain (EP300-BD (1040-1161)) (Homo sapiens, UniProt Q09472)
# T1 construct: Recombinant human EP300 bromodomain (EP300-BD (1040-1161)); made in house; host or cells: E. coli BL21-CodonPlus (DE3), modified pET vector
# T1 sequence (Q09472 1040-1161): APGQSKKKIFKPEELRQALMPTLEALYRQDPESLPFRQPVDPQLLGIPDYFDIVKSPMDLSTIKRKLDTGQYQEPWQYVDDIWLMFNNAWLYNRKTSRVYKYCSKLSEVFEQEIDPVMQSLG
# Assay: EP300 Alphascreen binding assay
# Summary of the method: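 Displacement of a biotinylated acetyl-K56 histone H3 peptide from the N-His bromodomain construct (1040-1161) measured by AlphaScreen proximity, beads at 7.5 μg/ml final, read 60 min after addition. Protein, peptide and compound first incubated 1 h at room temperature, pH 7.5 HEPES buffer; IC50 by four-parameter logistic fit.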
row,Structure (SMILES),IC50 [µM]
1,"Cc1noc(C)c1-c1cnc2c(c1)c(-c1ccc(C(=O)O)cc1OC(F)(F)F)cn2[C@@H]1CCOC1 [P-0286, (R)-4-(5-(3,5-dimethylisoxazol-4-yl)-1-(tetrahydrofuran-3-yl)-1H-pyrrolo[2,3-b]pyridin-3-yl)-3-(trifluoromethoxy)benzoic acid]",0.0001 to 1
2,"Cc1noc(C)c1-c1cnc2c(c1)c(-c1ccc(C(=O)O)cc1OC(F)(F)F)cn2-c1ccncc1F [P-0293, 4-(5-(3,5-dimethylisoxazol-4-yl)-1-(3-fluoropyridin-4-yl)-1H-pyrrolo[2,3-b]pyridin-3-yl)-3-(trifluoromethoxy)benzoic acid]",0.0001 to 1
3,"Cc1noc(C)c1-c1cnc2c(c1)c(-c1ccc(C(=O)O)cc1OC(F)(F)F)cn2-c1ccc(C(C)(C)O)cc1 [P-0314, 4-(5-(3,5-dimethylisoxazol-4-yl)-1-(4-(2-hydroxypropan-2-yl)phenyl)-1H-pyrrolo[2,3-b]pyridin-3-yl)-3-(trifluoromethoxy)benzoic acid]",0.0001 to 1
4,"Cc1noc(C)c1-c1cnc2c(c1)c(-c1ccc3c(c1)CNC3=O)cn2C(c1ccccn1)C1CCCC1 (centres unmarked) [P-0023, 5-(1-(cyclopentyl(pyridin-2-yl)methyl)-5-(3,5-dimethylisoxazol-4-yl)-1H-pyrrolo[2,3-b]pyridin-3-yl)isoindolin-1-one]",1 to 8
5,"Cc1noc(C)c1-c1cnc2c(c1)c(-c1cc(C(=O)O)ccc1OC(F)(F)F)cn2-c1ccc(F)cc1F [P-0268, 3-(1-(2,4-difluorophenyl)-5-(3,5-dimethylisoxazol-4-yl)-1H-pyrrolo[2,3-b]pyridin-3-yl)-4-(trifluoromethoxy)benzoic acid]",0.0001 to 1
6,"Cc1noc(C)c1-c1cnc2c(c1)c(-c1ccc(C(=O)O)cc1OCC(F)F)cn2-c1ccccc1 [P-0277, 3-(2,2-difluoroethoxy)-4-(5-(3,5-dimethylisoxazol-4-yl)-1-phenyl-1H-pyrrolo[2,3-b]pyridin-3-yl)benzoic acid]",0.0001 to 1
7,"Cc1noc(C)c1-c1cnc2c(-c3cccc(C(=O)O)c3C)c(C(F)(F)F)n([C@@H](C)c3ccccn3)c2c1 [P-0246, (S)-3-(6-(3,5-dimethylisoxazol-4-yl)-1-(1-(pyridin-2-yl)ethyl)-2-(trifluoromethyl)-1H-pyrrolo[3,2-b]pyridin-3-yl)-2-methylbenzoic acid]",1 to 8
8,"Cc1noc(C)c1-c1cnc2c(c1)c(-c1cnn(CC(=O)O)c1)cn2C(C1CC1)C1CC1 [P-0280, 2-(4-(1-(dicyclopropylmethyl)-5-(3,5-dimethylisoxazol-4-yl)-1H-pyrrolo[2,3-b]pyridin-3-yl)-1H-pyrazol-1-yl)acetic acid]",0.0001 to 1
9,"CCOc1cc(C(=O)O)cc(OCC)c1-n1cc(-c2cnn(CCN(C)C)c2)c2ncc(-c3c(C)noc3C)cc21 [P-0262, 4-(3-(1-(2-(dimethylamino)ethyl)-1H-pyrazol-4-yl)-6-(3,5-dimethylisoxazol-4-yl)-1H-pyrrolo[3,2-b]pyridin-1-yl)-3,5-diethoxybenzoic acid]",0.0001 to 1
10,"Cc1noc(C)c1-c1cnc2c(c1)c(-c1cc(C(=O)O)ccc1OC(F)(F)F)cn2C(C1CC1)C1CC1 [P-0284, 3-(1-(dicyclopropylmethyl)-5-(3,5-dimethylisoxazol-4-yl)-1H-pyrrolo[2,3-b]pyridin-3-yl)-4-(trifluoromethoxy)benzoic acid]",0.0001 to 1
11,"Cc1noc(C)c1-c1cnc2c(c1)c(-c1c(Cl)cc(C(=O)O)cc1OC(C)C)cn2C(C1CC1)C1CC1 [P-0283, 3-chloro-4-(1-(dicyclopropylmethyl)-5-(3,5-dimethylisoxazol-4-yl)-1H-pyrrolo[2,3-b]pyridin-3-yl)-5-isopropoxybenzoic acid]",0.0001 to 1
12,"Cc1noc(C)c1-c1cnc2c(c1)c(-c1ccc(C(=O)O)cc1OC(F)(F)F)cn2C1CCNCC1 [P-0290, 4-(5-(3,5-dimethylisoxazol-4-yl)-1-(piperidin-4-yl)-1H-pyrrolo[2,3-b]pyridin-3-yl)-3-(trifluoromethoxy)benzoic acid]",0.0001 to 1
13,"Cc1noc(C)c1-c1cnc2c(c1)c(-c1ccc(C(=O)O)cc1OCC(F)(F)F)cn2-c1ccccc1 [P-0278, 4-(5-(3,5-dimethylisoxazol-4-yl)-1-phenyl-1H-pyrrolo[2,3-b]pyridin-3-yl)-3-(2,2,2-trifluoroethoxy)benzoic acid]",0.0001 to 1
14,"CCOc1c(F)c(C(=O)O)c(F)c(OCC)c1-c1cn(-c2ccc(F)cc2F)c2ncc(-c3c(C)noc3C)cc12 [P-0296, 4-(1-(2,4-difluorophenyl)-5-(3,5-dimethylisoxazol-4-yl)-1H-pyrrolo[2,3-b]pyridin-3-yl)-3,5-diethoxy-2,6-difluorobenzoic acid]",0.0001 to 1
15,"CCOc1cc(C(=O)O)ncc1-c1cn(-c2ccc(F)cc2F)c2ncc(-c3c(C)noc3C)cc12 [P-0295, 5-(1-(2,4-difluorophenyl)-5-(3,5-dimethylisoxazol-4-yl)-1H-pyrrolo[2,3-b]pyridin-3-yl)-4-ethoxypicolinic acid]",0.0001 to 1
16,"CCOc1cc(C(=O)O)cc(OCC)c1-n1cc(-c2cn(C(C)C)nc2C)c2ncc(-c3c(C)noc3C)cc21 [P-0259, 4-(6-(3,5-dimethylisoxazol-4-yl)-3-(1-isopropyl-3-methyl-1H-pyrazol-4-yl)-1H-pyrrolo[3,2-b]pyridin-1-yl)-3,5-diethoxybenzoic acid]",0.0001 to 1
17,"Cc1noc(C)c1-c1cnc2c(c1)c(-c1ccc(C#N)cc1)cn2C(c1ccccn1)C1CCCC1 (centres unmarked) [P-0022, 4-(1-(cyclopentyl(pyridin-2-yl)methyl)-5-(3,5-dimethylisoxazol-4-yl)-1H-pyrrolo[2,3-b]pyridin-3-yl)benzonitrile]",8 to 1000
18,"CCOc1cc(OC)c(C(=O)O)cc1-c1cn(-c2ccc(F)cc2F)c2ncc(-c3c(C)noc3C)cc12 [P-0250, 5-(1-(2,4-difluorophenyl)-5-(3,5-dimethylisoxazol-4-yl)-1H-pyrrolo[2,3-b]pyridin-3-yl)-4-ethoxy-2-methoxybenzoic acid]",0.0001 to 1
19,"CCn1cc(-n2cc(-c3ccc(C(=O)O)cc3OC(F)(F)F)c3cc(-c4c(C)noc4C)cnc32)c(C)n1 [P-0287, 4-(5-(3,5-dimethylisoxazol-4-yl)-1-(1-ethyl-3-methyl-1H-pyrazol-4-yl)-1H-pyrrolo[2,3-b]pyridin-3-yl)-3-(trifluoromethoxy)benzoic acid]",0.0001 to 1
20,"Cc1noc(C)c1-c1cnc2c(c1)c(-c1ccc(S(C)(=O)=O)cc1OC(C)C)cn2-c1ccccc1 [P-0302, 4-(3-(2-isopropoxy-4-(methylsulfonyl)phenyl)-1-phenyl-1H-pyrrolo[2,3-b]pyridin-5-yl)-3,5-dimethylisoxazole]",0.0001 to 1
21,"Cc1noc(C)c1-c1cnc2c(c1)c(-c1ccc(C(=O)O)cc1OC(F)(F)F)cn2-c1ccccc1C#N [P-0309, 4-(1-(2-cyanophenyl)-5-(3,5-dimethylisoxazol-4-yl)-1H-pyrrolo[2,3-b]pyridin-3-yl)-3-(trifluoromethoxy)benzoic acid]",0.0001 to 1
22,"Cc1noc(C)c1-c1cnc2c(-c3cccc(C(=O)O)c3F)c(C(F)(F)F)n([C@@H](C)c3ccccn3)c2c1 [P-0245, (S)-3-(6-(3,5-dimethylisoxazol-4-yl)-1-(1-(pyridin-2-yl)ethyl)-2-(trifluoromethyl)-1H-pyrrolo[3,2-b]pyridin-3-yl)-2-fluorobenzoic acid]",0.0001 to 1
23,"CNC(=O)c1ccc(-c2cn(C(c3ccccn3)C3CCCC3)c3ncc(-c4c(C)noc4C)cc23)cc1 (centres unmarked) [P-0021, 4-(1-(cyclopentyl(pyridin-2-yl)methyl)-5-(3,5-dimethylisoxazol-4-yl)-1H-pyrrolo[2,3-b]pyridin-3-yl)-N-methylbenzamide]",1 to 8
24,"COc1cc(-c2c(C(F)(F)F)n([C@@H](C)c3ccccn3)c3cc(-c4c(C)noc4C)cnc23)ccc1C(=O)O [P-0244, (S)-4-(6-(3,5-dimethylisoxazol-4-yl)-1-(1-(pyridin-2-yl)ethyl)-2-(trifluoromethyl)-1H-pyrrolo[3,2-b]pyridin-3-yl)-2-methoxybenzoic acid]",1 to 8
25,"Cc1noc(C)c1-c1cnc2c(c1)c(-c1ccc(C(=O)O)cc1OC(F)(F)F)cn2-c1cnccc1F [P-0251, 4-(5-(3,5-dimethylisoxazol-4-yl)-1-(4-fluoropyridin-3-yl)-1H-pyrrolo[2,3-b]pyridin-3-yl)-3-(trifluoromethoxy)benzoic acid]",0.0001 to 1
26,"CCOc1cc(C(=O)O)cc(OCC)c1-n1cc(-c2cn(C)nc2C)c2ncc(-c3c(C)noc3C)cc21 [P-0263, 4-(3-(1,3-dimethyl-1H-pyrazol-4-yl)-6-(3,5-dimethylisoxazol-4-yl)-1H-pyrrolo[3,2-b]pyridin-1-yl)-3,5-diethoxybenzoic acid]",0.0001 to 1
27,"Cc1noc(C)c1-c1cnc2c(c1)c(-c1ccc(C(=O)O)cc1OC(F)(F)F)cn2-c1ccccc1C1CC1 [P-0308, 4-(1-(2-cyclopropylphenyl)-5-(3,5-dimethylisoxazol-4-yl)-1H-pyrrolo[2,3-b]pyridin-3-yl)-3-(trifluoromethoxy)benzoic acid]",0.0001 to 1
28,"Cc1noc(C)c1-c1cnc2c(c1)c(-c1ccc(C(=O)O)cc1OC(C)C)cn2[C@H]1CCOC1 [P-0301, (S)-4-(5-(3,5-dimethylisoxazol-4-yl)-1-(tetrahydrofuran-3-yl)-1H-pyrrolo[2,3-b]pyridin-3-yl)-3-isopropoxybenzoic acid]",0.0001 to 1
29,"Cc1noc(C)c1-c1cnc2c(c1)c(-c1ccc(C(=O)O)cc1OC(C)C)cn2-c1cnn(CC(C)(C)O)c1 [P-0299, 4-(5-(3,5-dimethylisoxazol-4-yl)-1-(1-(2-hydroxy-2-methylpropyl)-1H-pyrazol-4-yl)-1H-pyrrolo[2,3-b]pyridin-3-yl)-3-isopropoxybenzoic acid]",0.0001 to 1
